From patent US11161871B2, “Crystalline form of obeticholic acid and preparation method therefor” (Jiangsu Hengrui Medicine Co., Ltd., priority 2016, dated 2021)

Assays:
[1] = placebo-controlled phase III clinical trial; cited from earlier work
[2] = Drying at 80° C. of crystal product crystallized with butyl acetate; assay type: physicochemical; conditions: crystal product from butyl acetate dried at 80° C.
[3] = Stability under placement condition (30° C., RH 65%), HPLC purity and X-ray powder diffraction; assay type: physicochemical; conditions: for Crystal form (X-ray powder diffraction) / Purity determined by HPLC: 30° C.
Procedure: Samplings were carried out on Day 5, Day 10, and Day 30.

[4] = Stability of crystal form E spread flat in the air under lighting, heating and high humidity, purity by HPLC; assay type: physicochemical; conditions: for Purity detected by HPLC, 40° C.: heating 40° C.; for Purity detected by HPLC, 60° C.: heating 60° C.; for Purity detected by HPLC, RH 75%: high humidity RH 75%; for Purity detected by HPLC, RH 90%: high humidity RH 90%; for Purity detected by HPLC, Lighting: lighting 4500 Lux
Procedure: Samplings were carried out on Day 5 and Day 10.

[5] = Special stability study: grinding, heating, tableting (crystal form, DSC); assay type: physicochemical

SMILES: CC[C@H]1[C@@H](O)[C@@H]2[C@H](CC[C@]3(C)[C@@H]([C@H](C)CCC(=O)O)CC[C@@H]23)[C@@]2(C)CC[C@@H](O)C[C@@H]12 [obeticholic acid]
- Biomarkers associated with reduced risk of liver transplantation [1]: increases the level of two biomarkers associated with reduced risk of liver transplantation
- Thermal stability on drying (colour change, degradation) [2]: unstable at 80 °C and has undergone degradation

SMILES: CC[C@H]1[C@@H](O)[C@@H]2[C@H](CC[C@]3(C)[C@@H]([C@H](C)CCC(=O)O)CC[C@@H]23)[C@@]2(C)CC[C@@H](O)C[C@@H]12 [Crystal form E, obeticholic acid]
- Crystal form (X-ray powder diffraction) ([3]; Day 0): Crystal form E
- Purity determined by HPLC ([3]; Day 0): 99.75%
- Crystal form (X-ray powder diffraction) ([3]; Day 5): Crystal form E
- Purity determined by HPLC ([3]; Day 5): 99.72%
- Crystal form (X-ray powder diffraction) ([3]; Day 10): Crystal form E
- Purity determined by HPLC ([3]; Day 10): 99.73%
- Crystal form (X-ray powder diffraction) ([3]; Day 30): Crystal form E
- Purity determined by HPLC ([3]; Day 30): 99.70%
- Stability (in words) ([3]; placement condition 30° C., up to Day 30): stable under the placement condition
- Purity detected by HPLC, 40° C. ([4]; day 0): 99.7%
- Purity detected by HPLC, 40° C. ([4]; day 5): 99.6%
- Purity detected by HPLC, 40° C. ([4]; day 10): 99.5%
- Purity detected by HPLC, 60° C. ([4]; day 0): 99.7%
- Purity detected by HPLC, 60° C. ([4]; day 5): 99.4%
- Purity detected by HPLC, 60° C. ([4]; day 10): 99.1%
- Purity detected by HPLC, RH 75% ([4]; day 0): 99.7%
- Purity detected by HPLC, RH 75% ([4]; day 5): 99.7%
- Purity detected by HPLC, RH 75% ([4]; day 10): 99.7%
- Purity detected by HPLC, RH 90% ([4]; day 0): 99.7%
- Purity detected by HPLC, RH 90% ([4]; day 5): 99.6%
- Purity detected by HPLC, RH 90% ([4]; day 10): 99.5%
- Purity detected by HPLC, Lighting ([4]; day 0): 99.7%
- Purity detected by HPLC, Lighting ([4]; day 5): 99.6%
- Purity detected by HPLC, Lighting ([4]; day 10): 99.6%
- Stability (in words) ([4]; lighting, high temperature and high humidity (summary statement)): stable
- Stability (in words) ([4]; spread flat in the air, high temperature): slightly degraded
- Stability (in words) ([4]; spread flat in the air, lighting/high humidity): good stability
- DSC peak ([5]; after grinding treatment for 10 minutes in a mortar under nitrogen): 94.3 °C
- DSC peak ([5]; after heating treatment for 3 hours at 80° C.): 94.5 °C
- DSC peak ([5]; after tableting treatment): 94.6 °C
- Stability of the crystal form (in words) ([5]; ground, heated or tableted (grinding, pressure and heating)): the crystal form was stable
